Entries after “also recorded” stand apart in the source; their conditions may differ.

Test [1] concerns MFN2 T105M sciatic nerves. Briefly: Sciatic nerve axonal mitochondrial motility, agonist applied to nerve. The conditions noted are these: MFN2 T105M mouse sciatic nerve. On the procedure:
Sciatic nerves of 12-18 week old male or female MFN2 T105M mice were removed en bloc with the lumbar spine and axotomy at the tibial nerve, stained with TMEM ([…]) for 30 minutes in prewarmed Neurobasal Medium without phenol red (Thermo Fisher Scientific) at room temperature, washed, and maintained on the stage of a Nikon A1Rsi Confocal Microscope at 37 degrees C. for time-lapse confocal studies. Images were acquired with a 40× oil immersion objective at 1 frame every 5 or 10 seconds for sequential 10 minute periods. Mitofusin agonist chimera B-A/I was added after the first 10 minute imaging period (final concentrations of […]) and nerve axons imaged for another 40 minutes. Because there was no difference in mitochondrial trafficking or response to mitofusin agonist between male and female mice, the data were combined.

A further test deals with Mfn2 null MEFs. Briefly: Mitochondrial elongation (aspect ratio) fusogenicity assay. Format: cell-based, mouse. From the text:
A cultured murine embryonic fibroblast assay system was used in which mitochondrial elongation (an increase in aspect ratio) reflects enhanced mitochondrial fusion.
A pharmacophore model was generated based on the interactions of HR1 and HR2 domains in the calculated structural model of Mfn2 in the closed conformation. The key features included hydrophobic interactions involving Mfn2 HR1: Val372 and Met376, and aromatic interactions and hydrogen bonding involving Mfn2 HR1 His380. […] A library comprising ˜14 million commercially available compounds was prepared in silico and evaluated using PHASE to fit these criteria. Top ranked hits were clustered, and filtered based on pharmacological properties using Qikprop. The top 55 (see TABLE 4) commercially available small molecules conforming to the model were selected for functional screening and purchased in 1 mg aliquots. Each compound was dissolved to a stock concentration of 10 mM in DMSO and applied to Mfn2 null MEFs overnight at a final concentration of 1 mM. […] Images were acquired by confocal microscopy. Each compound was scored for fusogenicity (see e.g., FIG. 24A) and % cell death (see e.g., FIG. 24B).
Wild-type MEFs were prepared from E10.5 c57/bl6 mouse embryos. […] MEFs were subcultured in DMEM (4.5 g/L glucose) plus 10% fetal bovine serum, 1× nonessential amino acids, 2 mM L-glutamine, 100U/ml penicillin and 100 ug/ml streptomycin.
Cells were excited with 408 nm (Hoechst), […] (MitoTracker Green and Calcein AM, GFP), or 637 nm (TMRE, MitoTracker Orange, Ethidium homodimer-1, and AF594-Dextran) laser diodes. For mitochondrial elongation studies mitochondrial aspect ratio (long axis/short axis) was calculated using automated edge detection and Image J software. Mitochondrial depolarization was calculated as % of green mitochondria visualized on MitoTracker Green and TMRE merged images, expressed as green/(green+yellow mitochondria)×100.

In test [2] the test system is MFN2 Asp378 and Ala378 mutants. The experiment in a line: Mitochondrial fusion in cells expressing MFN2 Ser378 mutants. The conditions noted are these: phosphomimic Asp378 vs nonphosphorylatable Ala378. Format: cell-based, human. The source says: On the basis of fluorescence resonance energy transfer (FRET) analysis of MFN2 labeled at the N and C termini, mitofusin agonists promoted an open MFN2 conformation favoring mitochondrial fusion, with a rank order paralleling that for HR2 binding and mitochondrial fusion (see e.g., FIG. 11G; compare to FIG. 11B and FIG. 11C), supporting allosteric activation.
Human Mfn2 Ser378 was mutated to Ala or Asp by site-directed mutagenesis using the QuikChange Lightning kit (Agilent Technologies Inc.) and primers: […]
Mfn2 and its mutants were sub-cloned into adenoviral vector Type 5 (dE1/E3) with RGD-fiber modification (Vector Biolabs) using BamHI/XhoI. All constructs were verified by Sanger DNA sequencing. Adeno-viral PINK1 was purchased from Vector Biolabs.

Test [3] has as its system MEFs expressing CMT2A mutant MFN2. Briefly: Mitochondrial dysmorphology in MEFs expressing MFN2 mutants. Format: cell-based, mouse. As to conditions: MFN2 T105M in MEFs. On the procedure:
Fusogenic activity of commercially available small-molecule candidate pharmacophores (TABLE 4), focusing on those having structures that mimicked Ser^378-phosphorylated (class A) and -unphosphorylated (class B) minipeptide amino acid side chains were assessed (see e.g., FIG. 5, TABLE 5). It was reasoned that simultaneous application of class A and B agonists could enhance mitofusin by acting on both MFN2 Ser^378 phosphorylation states. […] Therefore, Cpd A and B functionality were assimilated into a single molecule by creating Cpd A-B chimeras (see e.g., FIG. 11, FIG. 7, TABLE 6). […] On the basis of fluorescence resonance energy transfer (FRET) analysis of MFN2 labeled at the N and C termini, mitofusin agonists promoted an open MFN2 conformation favoring mitochondrial fusion, with a rank order paralleling that for HR2 binding and mitochondrial fusion (see e.g., FIG. 11G; compare to FIG. 11B and FIG. 11C), supporting allosteric activation. […]
Cells were excited with 408 nm (Hoechst), […] (MitoTracker Green and Calcein AM, GFP), or 637 nm (TMRE, MitoTracker Orange, Ethidium homodimer-1, and AF594-Dextran) laser diodes. For mitochondrial elongation studies mitochondrial aspect ratio (long axis/short axis) was calculated using automated edge detection and Image J software. […]

Test [4] relates to cultured neurons expressing MFN2 T105M or MFN2 R94Q. Briefly: Cultured mouse neurons expressing CMT2A MFN2 mutants. Format: cell-based. On the procedure: Neonatal mouse hippocampal neurons were cultured from brains of one day old Mfn2 T105M or non-transgenic sibling mouse pups as described. After 10 days of differentiating culture neurons were infected with Adeno-Cre to induce Mfn2 T105M expression or Adeno-βgal as a control (50 MOI). After an additional 72 hours mitofusin agonists or DMSO vehicle were added. For static confocal imaging neuronal mitochondria were labeled with adenoviral-expressed mitoGFP plus TMRE. Autophagy was measured by LC3 aggregation in neurons infected with adenoviral LC3-GFP. For time-lapse studies of mitochondrial trafficking bi-cistronic Adeno-Cre/GFP marked Cre expression and mitochondria were labeled with adeno-mitoDsRed. Confocal live cell images were acquired with a time-lapse of 1 frame every 90 seconds for 1 hour.

For `CC1CCCCC1NC(=O)NCCSc1nnc(C2CC2)n1-c1ccccc1` (racemic) [B-A/I, 1-(2-((5-cyclopropyl-4-phenyl-4H-1,2,4-triazol-3-yl)thio)ethyl)-3-(2-methylcyclohexyl)urea], the “sciatic nerve axonal mitochondrial motility” value in test [1] is recorded as “rapidly reverses mitochondrial dysmotility; also recorded: restored mitochondrial motility to within normal levels”. Further, the “fusogenic activity (mitochondrial elongation), in words” value in the test with Mfn2 null MEFs is “potently stimulated mitochondrial fusion”. The “selectivity of fusogenic effect for MFN2 Ser378 mutants” value in test [2] was “non-selective”. The “reversal of mitochondrial dysmorphology” value in test [3] was “as effective as the combination of Cpds A+B”. Also, the “mitochondrial fragmentation/dysmorphology, hypopolarization, autophagy in neurons” value in test [4] (MFN2 R94Q or T105M) is “concomitantly corrected”. The “mitochondrial clumping and motility in neurons” value in test [4] (MFN2 T105M) is on record as “restored mitochondrial motility”.

The values are drawn from patent US11760733B2, “Small molecule regulators of mitochondrial fusion and methods of use thereof” (Washington University, priority 2017, dated 2023).
